Measurements as given in patent US20050124595A1, “Compositions and methods for treating glaucoma and ocular hypertension” (priority 2002, published 2005).

How the values were obtained:
[1] = target: T1, high-conductance calcium-activated potassium (maxi-K) channels (Homo sapiens, UniProt Q12791); assay: Patch clamp recordings of maxi-K channel currents in excised inside-out membrane patches; format: biochemical; details: from reduction in peak current, 10 nM compound on internal side of membrane patch, held at -80 mV, steps typically to +50 mV
T1 construct: expressed in transfected cells; host or cells: CHO cells (α-subunit alone) and HEK293 cells (α- and β-subunits)
Description: Patch clamp recordings of currents flowing through high-conductance calcium-activated potassium (maxi-K) channels were made from membrane patches excised from CHO cells constitutively expressing the α-subunit of the maxi-K channel and from HEK293 cells constitutively expressing both α- and β-subunits using conventional techniques (Hamill et al., 1981, Pflügers Archiv. 391, 85-100) at room temperature. Glass capillary tubing (Garner #7052) was pulled in two stages to yield micropipettes with tip diameters of approximately 1-2 microns. Pipettes were typically filled with solutions containing (mM): 150 KCl, 10 Hepes (4-(2-hydroxyethyl)-1-piperazine […]), 1 MgCl2, 0.01 CaCl2, and adjusted to pH 7.20 with 3.7 mM KOH. After forming a high resistance ([…]) seal between the plasma membrane and the pipette, the pipette was withdrawn from the cell, forming an excised inside-out membrane patch. The patch was excised into a bath solution containing (mM): 150 KCl, 10 Hepes, 5 EGTA (ethylene glycol bis(β-aminoethyl ether)-N,N,N′,N′-tetraacetic acid), sufficient Ca to yield a free Ca concentration of 1-5 μM, and the pH was adjusted to 7.2 with KOH. For example, 4.193 mM Ca was added to give a free concentration of 1 μM at 22° C. An EPC9 amplifier (HEKA Elektronic, Lambrect, Germany) was used to control the voltage and to measure the currents flowing across the membrane patch. The input to the headstage was connected to the pipette solution with a Ag/AgCl wire, and the amplifier ground was connected to the bath solution with a Ag/AgCl wire covered with a tube filled with agar dissolved in 0.2 M KCl. […]
The effects of the compounds of the present invention on maxi-K channels was examined in excised inside-out membrane patches. […] The fraction of channels blocked in each experiment was calculated from the reduction in peak current caused by application of 10 nM of specified compound to the internal side of the membrane patch. […]

[2] = tested on: Mice (CD-1); assay: Tremorgen assay, mouse model; format: in vivo; details: CD-1 mice; for Tremors: intraperitoneal
Experimental: Tremorgen Assay A mouse model was developed to evaluate the tremorgen potential of the instance compounds. Mice (CD-1) were injected intraperitoneally at 5 mg/Kg with each compound and observed by investigators for 1 hour for any signs of tremors as well as other behaviors not seen in control mice.
A known tremorgen, Aflatrem, consistently produces tremors in injected mice within 15 minutes at 1 and 5 mg/Kg.

T1 sequence (Q12791 whole entry): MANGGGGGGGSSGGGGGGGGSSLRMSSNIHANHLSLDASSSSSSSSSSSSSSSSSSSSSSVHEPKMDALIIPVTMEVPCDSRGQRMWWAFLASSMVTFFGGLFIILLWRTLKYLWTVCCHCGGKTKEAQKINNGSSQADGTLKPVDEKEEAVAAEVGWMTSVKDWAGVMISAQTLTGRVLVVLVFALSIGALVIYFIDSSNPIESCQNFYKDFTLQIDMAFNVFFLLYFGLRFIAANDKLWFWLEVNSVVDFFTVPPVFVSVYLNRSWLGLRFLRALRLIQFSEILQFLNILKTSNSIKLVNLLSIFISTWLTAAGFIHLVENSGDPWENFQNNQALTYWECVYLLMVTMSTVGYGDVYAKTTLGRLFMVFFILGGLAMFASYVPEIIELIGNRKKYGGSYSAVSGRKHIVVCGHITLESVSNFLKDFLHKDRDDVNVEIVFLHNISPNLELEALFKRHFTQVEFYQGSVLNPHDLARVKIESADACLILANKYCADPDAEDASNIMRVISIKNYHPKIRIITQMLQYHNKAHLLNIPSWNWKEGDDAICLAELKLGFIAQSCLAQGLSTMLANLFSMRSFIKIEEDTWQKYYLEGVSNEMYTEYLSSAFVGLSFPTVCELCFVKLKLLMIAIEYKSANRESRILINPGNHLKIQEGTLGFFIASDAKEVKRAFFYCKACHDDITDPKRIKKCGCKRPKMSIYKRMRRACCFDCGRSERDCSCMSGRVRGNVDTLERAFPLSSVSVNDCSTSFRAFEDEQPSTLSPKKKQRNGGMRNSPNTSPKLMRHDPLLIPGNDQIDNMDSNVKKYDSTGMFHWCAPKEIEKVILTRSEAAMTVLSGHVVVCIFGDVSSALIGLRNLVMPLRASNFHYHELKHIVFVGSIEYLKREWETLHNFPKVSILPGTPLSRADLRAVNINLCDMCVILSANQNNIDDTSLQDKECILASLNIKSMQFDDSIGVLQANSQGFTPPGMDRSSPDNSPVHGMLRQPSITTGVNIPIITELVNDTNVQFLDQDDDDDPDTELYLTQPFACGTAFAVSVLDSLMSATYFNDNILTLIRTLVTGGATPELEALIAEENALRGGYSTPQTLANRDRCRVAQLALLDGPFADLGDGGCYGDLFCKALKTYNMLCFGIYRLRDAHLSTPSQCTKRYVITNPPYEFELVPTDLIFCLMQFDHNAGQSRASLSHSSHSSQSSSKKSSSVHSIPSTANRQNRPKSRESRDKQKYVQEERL

Molecule | FRACTION BLOCKED (10 nM) [1] | Tremors ([2]; 5 mg/Kg, observed for 1 hour) | time to tremors after injection ([2]; 1 and 5 mg/Kg) [min] | Tremors ([2]; 1 and 5 mg/Kg)
CC(C)=CCc1cccc2[nH]c3c(c12)C[C@@H]1CC[C@@]2(O)C45OC4C4OC(C6OC6(C)C)OC(C)(C)C4OC5=CC[C@]2(C)[C@@]31C (some centres unmarked) [Compound III] | 0.99-1 | None |  | 
CC(C)=CC1OC2C(OC3=CC[C@]4(C)[C@@]5(C)c6[nH]c7ccccc7c6C[C@@H]5CC[C@@]4(O)C34OC24)C(C)(C)O1 (some centres unmarked) [Compound II] | 0.99-1 | None |  | 
CC1(C)OC1Cc1cccc2[nH]c3c(c12)C[C@@H]1CC[C@@]2(O)C45OC4C4OC(C6OC6(C)C)OC(C)(C)C4OC5=CC[C@]2(C)[C@@]31C (some centres unmarked) [Compound I] | 0.9 | None |  | 
Aflatrem [reference compound] |  |  | ≤ 15 | Tremors
